According to PubChem BioAssay (NCI):
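Five concentrations, 48 hours, 96-well plates. Definition used: TGI = concentration required for complete inhibition of growth.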

Experiments:
Experiment in all cases: inhibition of tumour cell growth, NCI panel, 48 h
UACC-62 melanoma = test system: UACC-62 melanoma
U251 CNS = test system: U251 CNS
786-0 renal = test system: 786-0 renal
OVCAR-5 ovarian = test system: OVCAR-5 ovarian
UO-31 renal = test system: UO-31 renal
NCI-H522 lung = test system: NCI-H522 lung
COLO 205 colon = test system: COLO 205 colon
PC-3 prostate = test system: PC-3 prostate
RPMI-8226 leukemia = test system: RPMI-8226 leukemia
BT-549 breast = test system: BT-549 breast
MCF7 breast = test system: MCF7 breast
SN12C renal = test system: SN12C renal
M14 melanoma = test system: M14 melanoma
EKVX NSCLC = test system: EKVX NSCLC
OVCAR-4 ovarian = test system: OVCAR-4 ovarian
A498 renal = test system: A498 renal
RXF 393 renal = test system: RXF 393 renal
UACC-257 melanoma = test system: UACC-257 melanoma
NCI-H460 lung = test system: NCI-H460 lung
NCI-H226 lung = test system: NCI-H226 lung
SNB-19 CNS = test system: SNB-19 CNS
NCI-H23 lung = test system: NCI-H23 lung
SR leukemia = test system: SR leukemia
KM12 colon = test system: KM12 colon
SK-OV-3 ovarian = test system: SK-OV-3 ovarian
ACHN renal = test system: ACHN renal
OVCAR-3 ovarian = test system: OVCAR-3 ovarian
MDA-MB-435 = test system: MDA-MB-435
HOP-62 NSCLC = test system: HOP-62 NSCLC
SF-295 CNS = test system: SF-295 CNS
SNB-75 CNS = test system: SNB-75 CNS
HCT-15 colon = test system: HCT-15 colon
CCRF-CEM leukemia = test system: CCRF-CEM leukemia
A549 NSCLC = test system: A549 NSCLC
DU-145 prostate = test system: DU-145 prostate
TK-10 renal = test system: TK-10 renal
SK-MEL-28 melanoma = test system: SK-MEL-28 melanoma
HCT-116 colon = test system: HCT-116 colon
IGROV1 ovarian = test system: IGROV1 ovarian
SK-MEL-2 melanoma = test system: SK-MEL-2 melanoma
SW-620 colon = test system: SW-620 colon
OVCAR-8 ovarian = test system: OVCAR-8 ovarian
MDA-N = test system: MDA-N
HS 578T breast = test system: HS 578T breast
HOP-92 NSCLC = test system: HOP-92 NSCLC
NCI/ADR-RES ovarian = test system: NCI/ADR-RES ovarian
MOLT-4 leukemia = test system: MOLT-4 leukemia
K-562 leukemia = test system: K-562 leukemia
LOX IMVI melanoma = test system: LOX IMVI melanoma
HT29 colon = test system: HT29 colon
CAKI-1 renal = test system: CAKI-1 renal
HL-60(TB) leukemia = test system: HL-60(TB) leukemia
MALME-3M melanoma = test system: MALME-3M melanoma
SF-268 CNS = test system: SF-268 CNS
T-47D breast = test system: T-47D breast
SK-MEL-5 melanoma = test system: SK-MEL-5 melanoma
SF-539 CNS = test system: SF-539 CNS
MDA-MB-231 breast = test system: MDA-MB-231 breast
HCC-2998 colon = test system: HCC-2998 colon

O=c1c2ccccc2sc2c(CO)ccc(NCCN3CCCCC3)c12
TGI (UACC-62 melanoma): 15.6 µM | TGI (U251 CNS): 14.2 µM | TGI (786-0 renal): 12.2 µM | TGI (OVCAR-5 ovarian): 20 µM | TGI (UO-31 renal): 4.98 µM | TGI (NCI-H522 lung): 3.86 µM | TGI (COLO 205 colon): 4.78 µM | TGI (PC-3 prostate): 15.1 µM | TGI (RPMI-8226 leukemia): 4.6 µM | TGI (BT-549 breast): 23 µM | TGI (MCF7 breast): 11.4 µM | TGI (SN12C renal): 15.6 µM | TGI (M14 melanoma): 3.82 µM | TGI (EKVX NSCLC): 16.6 µM | TGI (OVCAR-4 ovarian): 9.46 µM | TGI (A498 renal): 9.61 µM | TGI (RXF 393 renal): 7.72 µM | TGI (UACC-257 melanoma): 3.76 µM | TGI (NCI-H460 lung): 8.37 µM | TGI (NCI-H226 lung): 10.6 µM | TGI (SNB-19 CNS): 17.6 µM | TGI (NCI-H23 lung): 10.3 µM | TGI (SR leukemia): 7.71 µM | TGI (KM12 colon): 14.8 µM | TGI (SK-OV-3 ovarian): 16.3 µM | TGI (ACHN renal): 9.45 µM | TGI (OVCAR-3 ovarian): 7.71 µM | TGI (MDA-MB-435): 7.92 µM | TGI (HOP-62 NSCLC): 14.6 µM | TGI (SF-295 CNS): 17.4 µM | TGI (SNB-75 CNS): 19.5 µM | TGI (HCT-15 colon): 14 µM | TGI (CCRF-CEM leukemia): 3.99 µM | TGI (A549 NSCLC): 12.8 µM | TGI (DU-145 prostate): 7.18 µM | TGI (TK-10 renal): 12.1 µM | TGI (SK-MEL-28 melanoma): 8.54 µM | TGI (HCT-116 colon): 11.8 µM | TGI (IGROV1 ovarian): 15 µM | TGI (SK-MEL-2 melanoma): 14.5 µM | TGI (SW-620 colon): 11.2 µM | TGI (OVCAR-8 ovarian): 15.5 µM | TGI (MDA-N): 11.6 µM | TGI (HS 578T breast): 15.9 µM | TGI (HOP-92 NSCLC): 20.9 µM | TGI (NCI/ADR-RES ovarian): 9.97 µM | TGI (MOLT-4 leukemia): 5.36 µM | TGI (K-562 leukemia): 5.36 µM | TGI (LOX IMVI melanoma): 11 µM | TGI (HT29 colon): 11.9 µM | TGI (CAKI-1 renal): 13.3 µM | TGI (HL-60(TB) leukemia): 11 µM | TGI (MALME-3M melanoma): 5.2 µM | TGI (SF-268 CNS): 13.1 µM | TGI (T-47D breast): 20.6 µM | TGI (SK-MEL-5 melanoma): 3.19 µM | TGI (SF-539 CNS): 16.2 µM | TGI (MDA-MB-231 breast): 19.4 µM

Clc1cccc(-c2sc(-c3cccs3)cc2Cc2cccs2)c1
TGI (UACC-62 melanoma): > 10 µM | TGI (786-0 renal): > 10 µM | TGI (UO-31 renal): > 10 µM | TGI (NCI-H522 lung): > 10 µM | TGI (COLO 205 colon): > 10 µM | TGI (PC-3 prostate): > 10 µM | TGI (RPMI-8226 leukemia): > 10 µM | TGI (BT-549 breast): > 10 µM | TGI (MCF7 breast): > 10 µM | TGI (SN12C renal): > 10 µM | TGI (M14 melanoma): > 10 µM | TGI (EKVX NSCLC): > 10 µM | TGI (OVCAR-4 ovarian): > 10 µM | TGI (RXF 393 renal): > 10 µM | TGI (UACC-257 melanoma): > 10 µM | TGI (NCI-H460 lung): > 10 µM | TGI (NCI-H226 lung): > 10 µM | TGI (SNB-19 CNS): > 10 µM | TGI (NCI-H23 lung): > 10 µM | TGI (SR leukemia): > 10 µM | TGI (KM12 colon): > 10 µM | TGI (SK-OV-3 ovarian): > 10 µM | TGI (ACHN renal): > 10 µM | TGI (MDA-MB-435): > 10 µM | TGI (HOP-62 NSCLC): > 10 µM | TGI (SF-295 CNS): > 10 µM | TGI (SNB-75 CNS): > 10 µM | TGI (HCT-15 colon): > 10 µM | TGI (CCRF-CEM leukemia): > 10 µM | TGI (A549 NSCLC): > 10 µM | TGI (DU-145 prostate): > 10 µM | TGI (TK-10 renal): > 10 µM | TGI (SK-MEL-28 melanoma): > 10 µM | TGI (HCT-116 colon): > 10 µM | TGI (IGROV1 ovarian): > 10 µM | TGI (SW-620 colon): > 10 µM | TGI (OVCAR-8 ovarian): > 10 µM | TGI (MDA-N): > 10 µM | TGI (HS 578T breast): > 10 µM | TGI (HOP-92 NSCLC): > 10 µM | TGI (NCI/ADR-RES ovarian): > 10 µM | TGI (MOLT-4 leukemia): > 10 µM | TGI (K-562 leukemia): > 10 µM | TGI (LOX IMVI melanoma): > 10 µM | TGI (HT29 colon): > 10 µM | TGI (CAKI-1 renal): > 10 µM | TGI (HL-60(TB) leukemia): > 10 µM | TGI (MALME-3M melanoma): > 10 µM | TGI (SF-268 CNS): > 10 µM | TGI (T-47D breast): > 10 µM | TGI (SK-MEL-5 melanoma): > 10 µM | TGI (SF-539 CNS): > 10 µM | TGI (MDA-MB-231 breast): > 10 µM | TGI (HCC-2998 colon): > 10 µM
